Publication PMC9838390, “Discovery and biosynthesis of karnamicins as angiotensin converting enzyme inhibitors” (Nature Communications, 2023)

Test system: KnmB2
Experiment: NADPH oxidation of KnmB2 and variants (340 nm)
Assay type: biochemical, L. rhizosphaerae NEAU-A2
Experimental: Hydrogen peroxide formation assay and NADPH oxidation
The hydrogen peroxide formed from KnmB1, KnmB2 and their variants were measured using the Hydrogen Peroxide Assay Kit (Beyotime Industrial Co. Ltd, Shanghai, China)4-5. 5–100 µL of enzyme reaction mixture was added to 100 µL of working reagent (S0038-1). The mixture was incubated for 30 min at 25 °C, at which time the absorbance at 560 nm was measured by NanoDrop 2000c (Fisher Scientific). The level of H2O2 was calculated according to a standard concentration curve from standard […]
NADPH detection was carried out in the cuvette by NanoDrop 2000c (Fisher Scientific). NADPH signal at 340 nm was monitored in time using 6220 M–1 cm–1 as […]
Spectral data for new compounds […]
Reaction conditions: 50 mM Tris-HCl buffer (pH 7.5),
0.15 mM NADPH, and 2 μM KnmB1 or KnmB2. […]
μM KnmB1 or variants, or 0.1 mM substrate 24/32/36. (h) NADPH oxidation of KnmB2 and variants. (i) NADPH oxidation of KnmB2 and variants in the presence 24 or 32. (j) H2O2 generation for KnmB2 and variants in the presence 24 or 32. Reaction conditions (h-j) for KnmB2 and their variants: 50 mM Tris-HCl buffer (pH 7.5), 0.15 mM NADPH, 2 μM KnmB2 or variants, or 0.1 mM substrate 24/32. Values are the means ± SD of n = 3 independent experiments, except for KnmB2+24 (T = 40 min), KnmB2-N219D+24 (T = 4 min), KnmB2-Y215F+24 (T= 1 min and 3 min) in i and j, and KnmB2+32 (T= 8 min) in j (n = 2). Source data are provided as a Source Data file. […]

Structure (SMILES): CC(C)CCCCc1nc(-c2cc(O)cc(C(N)=O)n2)cs1 [Compound 24]
- NADPH oxidation, average value (KnmB2+24, Time 0): 0.0000 µM
- NADPH oxidation, average value (KnmB2+24, Time 1): 5.8950 µM
- NADPH oxidation, average value (KnmB2+24, Time 2): 11.0397 µM
- NADPH oxidation, average value (KnmB2+24, Time 3): 17.6849 µM
- NADPH oxidation, average value (KnmB2+24, Time 4): 25.7235 µM
- NADPH oxidation, average value (KnmB2+24, Time 5): 35.2090 µM
- NADPH oxidation, average value (KnmB2+24, Time 8): 55.4662 µM
- NADPH oxidation, average value (KnmB2+24, Time 10): 66.9346 µM
- NADPH oxidation, average value (KnmB2+24, Time 15): 84.8339 µM
- NADPH oxidation, average value (KnmB2+24, Time 20): 95.5520 µM
- NADPH oxidation, average value (KnmB2+24, Time 30): 104.1265 µM
- NADPH oxidation, average value (KnmB2+24, Time 40): 102.4920 µM
- NADPH oxidation, average value (KnmB2+24, Time 60): 111.3076 µM
- NADPH oxidation, average value (KnmB2-F205A+24, Time 0): 0.0000 µM
- NADPH oxidation, average value (KnmB2-F205A+24, Time 1): 0.7985 µM
- NADPH oxidation, average value (KnmB2-F205A+24, Time 2): 1.4255 µM
- NADPH oxidation, average value (KnmB2-F205A+24, Time 3): 1.3880 µM
- NADPH oxidation, average value (KnmB2-F205A+24, Time 4): 1.7631 µM
- NADPH oxidation, average value (KnmB2-F205A+24, Time 5): 1.7310 µM
- NADPH oxidation, average value (KnmB2-F205A+24, Time 8): 1.8274 µM
- NADPH oxidation, average value (KnmB2-F205A+24, Time 10): 2.3312 µM
- NADPH oxidation, average value (KnmB2-F205A+24, Time 15): 2.6313 µM
- NADPH oxidation, average value (KnmB2-F205A+24, Time 20): 3.4566 µM
- NADPH oxidation, average value (KnmB2-F205A+24, Time 30): 5.0911 µM
- NADPH oxidation, average value (KnmB2-F205A+24, Time 40): 7.7546 µM
- NADPH oxidation, average value (KnmB2-F205A+24, Time 60): 10.8575 µM
- NADPH oxidation, average value (KnmB2-N291D+24, Time 0): 0.0000 µM
- NADPH oxidation, average value (KnmB2-N291D+24, Time 2): 1.4470 µM
- NADPH oxidation, average value (KnmB2-N291D+24, Time 4): 2.7331 µM
- NADPH oxidation, average value (KnmB2-N291D+24, Time 5): 4.2337 µM
- NADPH oxidation, average value (KnmB2-N291D+24, Time 8): 6.8060 µM
- NADPH oxidation, average value (KnmB2-N291D+24, Time 10): 8.5745 µM
- NADPH oxidation, average value (KnmB2-N291D+24, Time 15): 11.8971 µM
- NADPH oxidation, average value (KnmB2-N291D+24, Time 20): 16.3451 µM
- NADPH oxidation, average value (KnmB2-N291D+24, Time 30): 24.5445 µM
- NADPH oxidation, average value (KnmB2-N291D+24, Time 40): 34.3516 µM
- NADPH oxidation, average value (KnmB2-N291D+24, Time 60): 49.1426 µM
- NADPH oxidation, average value (KnmB2-Y215A+24, Time 0): 0.0000 µM
- NADPH oxidation, average value (KnmB2-Y215A+24, Time 1): 0.2519 µM
- NADPH oxidation, average value (KnmB2-Y215A+24, Time 2): 0.5145 µM
- NADPH oxidation, average value (KnmB2-Y215A+24, Time 3): 0.7020 µM
- NADPH oxidation, average value (KnmB2-Y215A+24, Time 4): 0.6913 µM
- NADPH oxidation, average value (KnmB2-Y215A+24, Time 5): 0.7449 µM
- NADPH oxidation, average value (KnmB2-Y215A+24, Time 8): 0.9968 µM
- NADPH oxidation, average value (KnmB2-Y215A+24, Time 10): 1.3237 µM
- NADPH oxidation, average value (KnmB2-Y215A+24, Time 15): 2.0043 µM
- NADPH oxidation, average value (KnmB2-Y215A+24, Time 20): 2.2883 µM
- NADPH oxidation, average value (KnmB2-Y215A+24, Time 30): 3.8532 µM
- NADPH oxidation, average value (KnmB2-Y215A+24, Time 40): 5.5520 µM
- NADPH oxidation, average value (KnmB2-Y215A+24, Time 60): 9.2926 µM
- NADPH oxidation, average value (KnmB2-Y215F+24, Time 0): 0.0000 µM
- NADPH oxidation, average value (KnmB2-Y215F+24, Time 1): 2.5724 µM
- NADPH oxidation, average value (KnmB2-Y215F+24, Time 2): 4.4480 µM
- NADPH oxidation, average value (KnmB2-Y215F+24, Time 3): 6.5113 µM
- NADPH oxidation, average value (KnmB2-Y215F+24, Time 4): 8.5745 µM
- NADPH oxidation, average value (KnmB2-Y215F+24, Time 5): 12.2187 µM
- NADPH oxidation, average value (KnmB2-Y215F+24, Time 8): 19.5606 µM
- NADPH oxidation, average value (KnmB2-Y215F+24, Time 10): 24.7588 µM
- NADPH oxidation, average value (KnmB2-Y215F+24, Time 15): 37.2990 µM
- NADPH oxidation, average value (KnmB2-Y215F+24, Time 20): 48.1779 µM
- NADPH oxidation, average value (KnmB2-Y215F+24, Time 30): 66.6667 µM
- NADPH oxidation, average value (KnmB2-Y215F+24, Time 40): 81.1361 µM
- NADPH oxidation, average value (KnmB2-Y215F+24, Time 60): 100.0536 µM
- coupling efficiency (hydroxylatable effector for KnmB2, from NADPH consumption and H2O2 formation in time): 0–45%
